Assay results: article PMC7570910, “8-Hydroxyquinoline Glycoconjugates Containing Sulfur at the Sugar Anomeric Position—Synthesis and Preliminary Evaluation of Their Cytotoxicity” (Molecules, 2020)

Experiments:
Type in all cases: cell-based
[1] = tested on: HCT-116 cells; assay: MTT cytotoxicity assay, HCT-116; conditions: Homo sapiens, incubation time 24 h, mean ± SD (n = 3)
[2] = tested on: MCF-7 cells; assay: MTT cytotoxicity assay, MCF-7; conditions: Homo sapiens, MCF7, incubation time 72 h, mean ± SD (n = 3)
Protocol: (§1) In vitro cytotoxicity studies of the obtained building blocks and glycoconjugates were carried out on cell lines characterized by the high expression of GLUT transporters and the strongly changed glucose metabolism (strong Warburg effect). […] Cytotoxicity was evaluated using the MTT assay.
The human cell line MCF-7 was obtained from collections at the Maria Sklodowska-Curie Memorial Cancer Center and Institute of Oncology, branch in Gliwice, Poland. […] The culture media were purchased from EuroClone and HyClone. Fetal bovine serum (FBS) was delivered by EURx, Poland, and Antibiotic Antimycotic Solution (100×) by Sigma-Aldrich, Germany. The cells were cultured under standard conditions at 37 °C in a humidified atmosphere at 5% CO2.
(§2) The viability of the cells was determined using an MTT (3-[4,5–dimethylthiazol-2-yl]-2,5-diphenyltetrazolium bromide) test (Sigma-Aldrich). Stock solutions of tested compounds were prepared in DMSO and diluted with the appropriate volumes of the growth medium directly before the experiment. […] The cell cultures were incubated for 24 h at 37 °C in a humidified atmosphere of 5% CO2. Then, the culture medium was removed, replaced with the solution of the tested compounds in medium with varying concentrations, and incubated for further 24 h or 72 h. After that, the medium was removed, and the MTT solution (50 µL, 0.5 mg/mL in PBS) was added. After 3 h of incubation, the MTT solution was removed, and the precipitated formazan was dissolved in DMSO. Finally, the absorbance at the 570 nm wavelength was measured spectrophotometrically with the plate reader. The experiment was conducted in at least three independent iterations with four technical repetitions. The IC50 values were calculated using CalcuSyn software (version 2.0, Biosoft, Cambridge, UK).

[3] = tested on: Normal Human Dermal Fibroblasts-Neonatal (NHDF-Neo); assay: MTT cytotoxicity assay, NHDF-Neo; conditions: incubation time 24 h, mean ± SD (n = 3)
Protocol: as §1
[…] […] The culture media were purchased from EuroClone and HyClone. Fetal bovine serum (FBS) was delivered by EURx, Poland, and Antibiotic Antimycotic Solution (100×) by Sigma-Aldrich, Germany. The cells were cultured under standard conditions at 37 °C in a humidified atmosphere at 5% CO2.
as §2

[4] = tested on: MCF-7 cells; assay: Influence of metal ions on cellular proliferation (MTT with Cu2+), MCF-7; conditions: Homo sapiens, MCF7; MTT assay, 72 h, addition of copper acetate at 100 µM
Protocol: (§3) Cultured cancer cells, in contrast to in vivo environment, are characterized by a low copper level. Therefore, additional experiments were carried out for compounds whose expected mechanism of action is based on the chelation of metal ions. The antiproliferative activities of glycoconjugates 67, 68, 70, and 71 were tested in the presence of Cu^2+ ions. The effect of the interaction of glycoconjugate complexes with metal ions on cell proliferation was measured by adding a copper salt solution to the growth medium and observing the rate of cell growth compared to copper-untreated cells.
(§4) During the appropriate experiments, the cells (MCF-7, HCT-116, and NHDF-Neo) were treated with solutions of glycoconjugate 67, 68, 70, or 71 in medium culture, supplemented with 100 µM copper acetate, and then their proliferation was measured by the MTT assay. The control system was cells suspended in medium supplemented with DMSO in the amount used to dissolve the compounds and the addition of the same amount of copper. […] The highest cytotoxic activity of the compounds was observed against the MCF-7 cell line. […] This confirmed the strong sensitivity of breast cancer cells to 8-HQ derivatives.
It can be seen that the greatest differences in cell survival occurred in the case of MCF-7 cell lines. A significant decrease in the proliferation of MCF-7 cells was observed after treatment with glycoconjugates at a concentration of 50 µM in the presence of Cu^2+ (cell viability 10–28%), compared to experiments with glycoconjugates alone. In this case, the cytotoxicity of glycoconjugates increased about three-fold in the presence of Cu(II) ions. […] For HCT-116 and NHDF-Neo cell lines, only slight differences in cell viability were observed after treatment with free compounds and when […] ions were added.
(§5) The cells were seeded into 96-well plates at concentration 1 × 10^4 (HCT 116, NHDF-Neo) or 5 × 10^3 (MCF-7) per well. The cell cultures were incubated for 24 h at 37 °C in a humidified atmosphere of 5% CO2. Then, the culture medium was removed, replaced with the solution of the tested compounds in medium with varying concentrations. Additionally, 100 µM solution of Cu(CH3COO)2 was added into wells with tested compounds. After 24 h or 72 h incubation, the MTT assay was performed.

[5] = tested on: Normal Human Dermal Fibroblasts-Neonatal (NHDF-Neo); assay: Influence of metal ions on cellular proliferation (MTT with Cu2+), NHDF-Neo; conditions: MTT assay, 24 h, addition of copper acetate at 100 µM
Protocol: as §3, §4, §5

[6] = tested on: HCT-116 cells; assay: Influence of metal ions on cellular proliferation (MTT with Cu2+), HCT-116; conditions: Homo sapiens, MTT assay, 24 h, addition of copper acetate at 100 µM
Protocol: as §3, §4, §5

Row | SMILES | IC50 [1] | IC50 [2] | IC50 [3] | IC50 [4] | IC50 [5] | IC50 [6]
1 | Cc1ccc2cccc(O)c2n1 [Compound 2Me8HQ, 8-hydroxyquinaldine, reference compound] | > 800 µM |  |  |  |  | 
2 | Oc1cccc2cccnc12 [Compound 8HQ, 8-hydroxyquinoline] | > 800 µM | 0.24 ± 0.01 µM | > 800 µM |  |  | 
3 | CC(=O)OC[C@H]1O[C@@H](Sc2ccc(NC(=O)CN=[N+]=[N-])cn2)[C@H](OC(C)=O)[C@@H](OC(C)=O)[C@@H]1OC(C)=O [Compound 33, (5-azidoacetamide-2-pyridyl) 2,3,4,6-tetra-O-acetyl-1-thio-β-D-glucopyranoside] | 13.39 ± 0.1 µM | 6.39 ± 0.07 µM | 11.2 ± 0.31 µM |  |  | 
4 | CC(=O)OC[C@H]1O[C@@H](Sc2ccc(NC(=O)CN=[N+]=[N-])cn2)[C@H](OC(C)=O)[C@@H](OC(C)=O)[C@H]1OC(C)=O [Compound 34, (5-azidoacetamide-2-pyridyl) 2,3,4,6-tetra-O-acetyl-1-thio-β-D-galactopyranoside] | 541.4 ± 3.73 µM | 383 ± 4.23 µM |  |  |  | 
5 | [N-]=[N+]=NCC(=O)Nc1ccc(S[C@@H]2O[C@H](CO)[C@@H](O)[C@H](O)[C@H]2O)nc1 [Compound 35, (5-azidoacetamide-2-pyridyl) 1-thio-β-D-glucopyranoside] | > 800 µM | > 800 µM |  |  |  | 
6 | C#CCOC(=O)Nc1ccc(S[C@@H]2O[C@H](COC(C)=O)[C@@H](OC(C)=O)[C@H](OC(C)=O)[C@H]2OC(C)=O)nc1 [Compound 36, (5-(((prop-2-yn-1-yloxy)carbonyl)amino)-2-pyridyl) 2,3,4,6-tetra-O-acetyl-1-thio-β-D-glucopyranoside] | 125 ± 8.98 µM | 38.3 ± 2.44 µM | 41.7 ± 3.4 µM |  |  | 
7 | C#CCOC(=O)Nc1ccc(S[C@@H]2O[C@H](COC(C)=O)[C@H](OC(C)=O)[C@H](OC(C)=O)[C@H]2OC(C)=O)nc1 [Compound 37] | 456.7 ± 3.85 µM | 392 ± 5.29 µM |  |  |  | 
8 | C#CCOC(=O)Nc1ccc(S[C@@H]2O[C@H](CO)[C@@H](O)[C@H](O)[C@H]2O)nc1 [Compound 38] | > 800 µM | > 800 µM |  |  |  | 
9 | CC(=O)OC[C@H]1O[C@@H](SCc2cn(CCCOc3cccc4cccnc34)nn2)[C@H](OC(C)=O)[C@@H](OC(C)=O)[C@@H]1OC(C)=O [Compound 59] | 173 ± 3.48 µM | 153.3 ± 0.25 µM | 229.1 ± 2.06 µM |  |  | 
10 | CC(=O)OC[C@H]1O[C@@H](SCc2cn(CCCOc3cccc4cccnc34)nn2)[C@H](OC(C)=O)[C@@H](OC(C)=O)[C@H]1OC(C)=O [Compound 60] | 304.8 ± 1.34 µM | 212 ± 3.46 µM | 421.2 ± 0.14 µM |  |  | 
11 | CC(=O)OC[C@H]1O[C@@H](SCc2cn(CCCOc3cccc4ccc(C)nc34)nn2)[C@H](OC(C)=O)[C@@H](OC(C)=O)[C@@H]1OC(C)=O [Compound 61] | 108 ± 1.62 µM | 130.4 ± 0.2 µM | 260 ± 7.65 µM |  |  | 
12 | CC(=O)OC[C@H]1O[C@@H](SCc2cn(CCCOc3cccc4ccc(C)nc34)nn2)[C@H](OC(C)=O)[C@@H](OC(C)=O)[C@H]1OC(C)=O [Compound 62] | 324 ± 1.61 µM | 244 ± 3.04 µM | 667.6 ± 6.43 µM |  |  | 
13 | OC[C@H]1O[C@@H](SCc2cn(CCCOc3cccc4cccnc34)nn2)[C@H](O)[C@@H](O)[C@@H]1O [Compound 63] | > 800 µM | > 800 µM |  |  |  | 
14 | Cc1ccc2cccc(OCCCn3cc(CS[C@@H]4O[C@H](CO)[C@@H](O)[C@H](O)[C@H]4O)nn3)c2n1 [Compound 65] | > 800 µM | > 800 µM |  |  |  | 
15 | Cc1ccc2cccc(OCCCn3cc(CS[C@@H]4O[C@H](CO)[C@H](O)[C@H](O)[C@H]4O)nn3)c2n1 [Compound 66] | > 800 µM | > 800 µM |  |  |  | 
16 | CC(=O)OC[C@H]1O[C@@H](Sc2ccc(NC(=O)Cn3cc(COc4cccc5cccnc45)nn3)cn2)[C@H](OC(C)=O)[C@@H](OC(C)=O)[C@@H]1OC(C)=O [Compound 67] | 146 ± 3.49 µM | 69.7 ± 3.5 µM | 71.8 ± 6.7 µM | 28.9 ± 1.52 µM | 71.4 ± 1.35 µM | 74.5 ± 0.16 µM
17 | CC(=O)OC[C@H]1O[C@@H](Sc2ccc(NC(=O)Cn3cc(COc4cccc5cccnc45)nn3)cn2)[C@H](OC(C)=O)[C@@H](OC(C)=O)[C@H]1OC(C)=O [Compound 68] | 130 ± 1.31 µM | 96.3 ± 5.99 µM | 111 ± 2.78 µM | 23.8 ± 0.48 µM | 83.6 ± 3.03 µM | 96.01 ± 0.59 µM
18 | O=C(Cn1cc(COc2cccc3cccnc23)nn1)Nc1ccc(S[C@@H]2O[C@H](CO)[C@@H](O)[C@H](O)[C@H]2O)nc1 [Compound 69] | 210.4 ± 0.55 µM | 144 ± 2.68 µM | 163.81 ± 0.01 µM |  |  | 
19 | CC(=O)OC[C@H]1O[C@@H](Sc2ccc(NC(=O)OCc3cn(CCCOc4cccc5cccnc45)nn3)cn2)[C@H](OC(C)=O)[C@@H](OC(C)=O)[C@@H]1OC(C)=O [Compound 70] | 63.5 ± 2.37 µM | 67.5 ± 1.58 µM | 64 ± 5.34 µM | 25.9 ± 1.76 µM | 68.4 ± 1.11 µM | 73.9 ± 2.99 µM
20 | CC(=O)OC[C@H]1O[C@@H](Sc2ccc(NC(=O)OCc3cn(CCCOc4cccc5cccnc45)nn3)cn2)[C@H](OC(C)=O)[C@@H](OC(C)=O)[C@H]1OC(C)=O [Compound 71] | 90.68 ± 0.52 µM | 68.3 ± 3.68 µM | 75.26 ± 0.38 µM | 20.5 ± 1.55 µM | 69.3 ± 2.9 µM | 83 ± 1.37 µM
21 | O=C(Nc1ccc(S[C@@H]2O[C@H](CO)[C@@H](O)[C@H](O)[C@H]2O)nc1)OCc1cn(CCCOc2cccc3cccnc23)nn1 [Compound 72] | > 800 µM | 739.2 ± 3.79 µM | > 800 µM |  |  | 
22 | COc1cccc2c1C(=O)c1c(O)c3c(c(O)c1C2=O)C[C@@](O)(C(=O)CO)C[C@@H]3O[C@H]1C[C@H](N)[C@H](O)[C@H](C)O1 [Doxorubicin, reference compound] | 5.59 ± 0.14 µM | 0.67 ± 0.01 µM | > 20 µM |  |  | 
